Values joined by “and” are separate entries in the source; they are usually repeats but may differ in a detail not shown here. Identical values can stand only once. Inconclusive results and toxic doses are left out. Cut-off read from the data, not from the text of the source: active = T/C of 150% or more; inactive = T/C below 125%.
Test system: L1210 leukemia ip in BDF1 mice, survival T/C
Assay: NCI In Vivo Anticancer Drug Screen. Data for tumor model L1210 Leukemia (intraperitoneal) in B6D2F1 (BDF1) mice
Conditions: endpoint: mean survival time, higher = longer survival
Outline: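 Transplantable tumor model; survival measured in treated vs vehicle control mice. Value = treated/control.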

[1] = dose: 100.0 mg/kg/injection, schedule: Q04DX003 (ip), vehicle: saline
[2] = dose: 200.0 mg/kg/injection, schedule: Q01DX009 (ip), vehicle: saline
[3] = dose: 200.0 mg/kg/injection, schedule: Q04DX003 (ip), vehicle: saline
[4] = dose: 100.0 mg/kg/injection, schedule: Q01DX001 (ip), vehicle: saline
[5] = dose: 200.0 mg/kg/injection, schedule: Q01DX001 (ip), vehicle: saline
[6] = dose: 400.0 mg/kg/injection, schedule: Q01DX001 (ip), vehicle: saline
[7] = dose: 25.0 mg/kg/injection, schedule: Q04DX002 (ip), vehicle: Klucel (hydroxypropylcellulose) (HPC)
[8] = dose: 50.0 mg/kg/injection, schedule: Q04DX002 (ip), vehicle: Klucel (hydroxypropylcellulose) (HPC)
[9] = dose: 100.0 mg/kg/injection, schedule: Q04DX002 (ip), vehicle: Klucel (hydroxypropylcellulose) (HPC)
[10] = dose: 200.0 mg/kg/injection, schedule: Q04DX002 (ip), vehicle: Klucel (hydroxypropylcellulose) (HPC)
[11] = dose: 400.0 mg/kg/injection, schedule: Q04DX002 (ip), vehicle: Klucel (hydroxypropylcellulose) (HPC)
[12] = dose: 100.0 mg/kg/injection, schedule: Q01DX009 (ip), vehicle: saline
[13] = dose: 400.0 mg/kg/injection, schedule: Q01DX009 (ip), vehicle: saline
[14] = dose: 400.0 mg/kg/injection, schedule: Q04DX003 (ip), vehicle: saline
[15] = dose: 100.0 mg/kg/injection, schedule: Q01DX009 (ip), vehicle: saline with Tween-80
[16] = dose: 100.0 mg/kg/injection, schedule: Q04DX003 (ip), vehicle: saline with Tween-80
[17] = dose: 200.0 mg/kg/injection, schedule: Q04DX003 (ip), vehicle: saline with Tween-80
[18] = dose: 400.0 mg/kg/injection, schedule: Q04DX003 (ip), vehicle: saline with Tween-80

Measured: T/C

CCCCCC(CC)C(CC)CO (stereo not drawn)
inactive: dose: 15.0 mg/kg/injection, schedule: Q01DX001 (ip), vehicle: carboxymethylcellulose (CMC) 95 % of control | dose: 30.0 mg/kg/injection, schedule: Q01DX001 (ip), vehicle: carboxymethylcellulose (CMC) 96 % of control | dose: 60.0 mg/kg/injection, schedule: Q01DX001 (ip), vehicle: carboxymethylcellulose (CMC) 96 % of control

C=CCN(C(=O)OCC)P(=O)(OCC)OCC
inactive: dose: 12.5 mg/kg/injection, schedule: Q01DX009 (ip), vehicle: saline 102 % of control | dose: 12.5 mg/kg/injection, schedule: Q04DX003 (ip), vehicle: saline 106 % of control | dose: 25.0 mg/kg/injection, schedule: Q01DX009 (ip), vehicle: saline 112 % of control | dose: 25.0 mg/kg/injection, schedule: Q04DX003 (ip), vehicle: saline 106 % of control | dose: 50.0 mg/kg/injection, schedule: Q01DX009 (ip), vehicle: saline 112 % of control | dose: 50.0 mg/kg/injection, schedule: Q04DX003 (ip), vehicle: saline 105 % of control | [1] 112 % of control | [2] 112 % of control | [3] 98 % of control

c1ccc2c(c1)C1=NCCN1c1ccccc1-2
inactive: dose: 10.0 mg/kg/injection, schedule: Q01DX009 (ip), vehicle: Klucel (hydroxypropylcellulose) (HPC) 101 % of control | dose: 10.0 mg/kg/injection, schedule: Q04DX003 (ip), vehicle: Klucel (hydroxypropylcellulose) (HPC) 114 % of control | dose: 20.0 mg/kg/injection, schedule: Q01DX009 (ip), vehicle: Klucel (hydroxypropylcellulose) (HPC) 111 % of control | dose: 20.0 mg/kg/injection, schedule: Q04DX003 (ip), vehicle: Klucel (hydroxypropylcellulose) (HPC) 122 % of control | dose: 40.0 mg/kg/injection, schedule: Q01DX009 (ip), vehicle: Klucel (hydroxypropylcellulose) (HPC) 105 % of control | dose: 40.0 mg/kg/injection, schedule: Q04DX003 (ip), vehicle: Klucel (hydroxypropylcellulose) (HPC) 112 % of control

Nc1ccccc1N/N=C/c1ccccc1
inactive: [4] 101 % of control | [5] 101 % of control | [6] 94 % of control

CC(=O)c1cccc2ccccc12
inactive: [7] 103 % of control | [8] 100 % of control | [9] 103 % of control

N#CNc1nc(-c2ccccc2)cc(-c2ccccc2O)n1
inactive: [9] 98 % of control | [10] 95 % of control | [11] 109 % of control

COc1ccccc1C(=O)N/N=C\c1ccc(Cl)cc1Cl
inactive: [12] 111 % of control | [1] 122 % of control | [2] 97 % of control | [3] 103 % of control | [13] 94 % of control | [14] 100 % of control

OC1CCCCC1[n+]1ccccc1 (stereo not drawn) (tested in a mixture with another compound)
inactive: [4] 103 % of control | [5] 88 % of control | [6] 101 % of control

Cc1c(F)cccc1OCC(=O)O
inactive: [9] 111 % of control | [10] 108 % of control | [11] 105 % of control

CC(C)(C)CC(C)(C)c1ccc(OCCOc2ccc(S(=O)(=O)O)cc2[N+](=O)[O-])cc1
inactive: [12] 105 % of control | [2] 105 % of control | [13] 100 % of control

FC(F)(F)c1ccc2c(c1)N(CCCCl)c1ccccc1S2
inactive: dose: 50.0 mg/kg/injection, schedule: Q04DX003 (ip), vehicle: Klucel (hydroxypropylcellulose) (HPC) 103 % of control | dose: 100.0 mg/kg/injection, schedule: Q04DX003 (ip), vehicle: Klucel (hydroxypropylcellulose) (HPC) 118 % of control | dose: 200.0 mg/kg/injection, schedule: Q04DX003 (ip), vehicle: Klucel (hydroxypropylcellulose) (HPC) 105 % of control | dose: 400.0 mg/kg/injection, schedule: Q04DX003 (ip), vehicle: Klucel (hydroxypropylcellulose) (HPC) 115 % of control

CCCCCCC/C(=N\N=C(N)N)c1ccc(O)cc1
inactive: dose: 15.0 mg/kg/injection, schedule: Q01DX Z (ip), vehicle: carboxymethylcellulose (CMC) 93 % of control | dose: 15.0 mg/kg/injection, schedule: Q01DX Z (oral), vehicle: carboxymethylcellulose (CMC) 117 % of control | dose: 30.0 mg/kg/injection, schedule: Q01DX Z (ip), vehicle: carboxymethylcellulose (CMC) 87 % of control | dose: 30.0 mg/kg/injection, schedule: Q01DX Z (oral), vehicle: carboxymethylcellulose (CMC) 106 % of control | dose: 60.0 mg/kg/injection, schedule: Q01DX Z (oral), vehicle: carboxymethylcellulose (CMC) 97 % of control and 103 % of control | dose: 120.0 mg/kg/injection, schedule: Q01DX Z (oral), vehicle: carboxymethylcellulose (CMC) 112 % of control and 90 % of control | dose: 240.0 mg/kg/injection, schedule: Q01DX Z (oral), vehicle: carboxymethylcellulose (CMC) 94 % of control and 95 % of control | dose: 480.0 mg/kg/injection, schedule: Q01DX Z (oral), vehicle: carboxymethylcellulose (CMC) 88 % of control and 90 % of control

CC1(C)N=C(N)N=C(N)N1c1ccc(OCCCCNC(=O)Nc2cccc(S(=O)(=O)F)c2)c(Cl)c1
inactive: dose: 25.0 mg/kg/injection, schedule: Q01DX009 (ip), vehicle: saline with Tween-80 100 % of control | dose: 50.0 mg/kg/injection, schedule: Q01DX009 (ip), vehicle: saline with Tween-80 108 % of control | [15] 116 % of control

CN(C)c1ccc(N=NC#N)cc1
inactive: dose: 1.56 mg/kg/injection, schedule: Q01DX009 (ip), vehicle: saline 108 % of control | dose: 3.12 mg/kg/injection, schedule: Q01DX009 (ip), vehicle: saline 105 % of control | dose: 6.25 mg/kg/injection, schedule: Q01DX009 (ip), vehicle: saline with Tween-80 104 % of control | dose: 6.25 mg/kg/injection, schedule: Q01DX009 (ip), vehicle: saline 105 % of control

O=C1Nc2ccccc2C12CNCS2 (stereo not drawn)
inactive: dose: 75.0 mg/kg/injection, schedule: Q01DX001 (ip), vehicle: saline 104 % of control | dose: 150.0 mg/kg/injection, schedule: Q01DX001 (ip), vehicle: saline 98 % of control | dose: 300.0 mg/kg/injection, schedule: Q01DX001 (ip), vehicle: saline 95 % of control

Nc1c(-c2ccccc2)nnn1-c1cccc(Cl)c1
inactive: dose: 25.0 mg/kg/injection, schedule: Q04DX002 (ip), vehicle: gum acacia 95 % of control | dose: 50.0 mg/kg/injection, schedule: Q04DX002 (ip), vehicle: gum acacia 95 % of control | dose: 100.0 mg/kg/injection, schedule: Q04DX002 (ip), vehicle: gum acacia 96 % of control and 98 % of control

CC(=O)Nc1ccc(NC(=O)Nc2ccccc2F)cc1
inactive: dose: 100.0 mg/kg/injection, schedule: Q01DX009 (ip), vehicle: Klucel (hydroxypropylcellulose) (HPC) 98 % of control | dose: 200.0 mg/kg/injection, schedule: Q01DX009 (ip), vehicle: Klucel (hydroxypropylcellulose) (HPC) 96 % of control | dose: 400.0 mg/kg/injection, schedule: Q01DX009 (ip), vehicle: Klucel (hydroxypropylcellulose) (HPC) 102 % of control

O=C(O)c1ccc(NC(=O)c2ccc3ccccc3c2O)cc1
inactive: dose: 100.0 mg/kg/injection, schedule: Q01DX001 (ip), vehicle: saline with Tween-80 104 % of control | [15] 109 % of control | [16] 102 % of control | dose: 200.0 mg/kg/injection, schedule: Q01DX001 (ip), vehicle: saline with Tween-80 103 % of control | dose: 200.0 mg/kg/injection, schedule: Q01DX009 (ip), vehicle: saline with Tween-80 110 % of control | [17] 100 % of control | dose: 400.0 mg/kg/injection, schedule: Q01DX001 (ip), vehicle: saline with Tween-80 101 % of control | [18] 96 % of control

NC(=S)N/N=C/c1ccccc1S(=O)(=O)O
inactive: [4] 96 % of control | [5] 94 % of control | [6] 102 % of control

CC(C)N(C)c1ccc(N=Nc2cc(Cl)ccc2Cl)cc1
inactive: [16] 98 % of control | [17] 102 % of control | [18] 104 % of control

COc1cc2c(cc1O)C(CCc1cc(OC)c(OC)c(OC)c1)=[N+](C)CC2
inactive: [7] 101 % of control | [8] 101 % of control | [9] 105 % of control

CC(N)C(=O)NCC(=O)NCC(=O)O (stereo not drawn)
inactive: [12] 103 % of control | [1] 100 % of control | [2] 96 % of control | [3] 96 % of control | [13] 98 % of control | [14] 94 % of control

Source: PubChem BioAssay AID248 (DTP/NCI, 2004)
